Test results: patent US20230020507A1, “COMPOUND AND USE THEREOF IN TREATING AUTOIMMUNE DISEASES” (PARENCHYMA BIOTECH INC., priority 2019, published 2023)

Columns and labels:
[1] = test system: C57BL/6 mice with DSS-induced inflammatory bowel disease; assay: Mucosal healing (intestinal epithelial barrier integrity) with FITC-dextran in DSS mice; assay type: in vivo, mouse; set-up: dose or concentration left out as unconfirmed; settings: oral daily 2nd to 9th day, 10th day, 4 hours after FITC-dextran, compared to solvent control
Text: The 1.5% DSS solution was changed at an interval of 2 days. Sterile distilled water was provided for drinking from the 8th day of the experiment.

[2] = test system: IL-6, IL-17A and IL-10 expression in lung tissue; assay: mRNA expression of IL-6, IL-17A and IL-10 in lung tissue of GVHD mice (real-time PCR); assay type: in vivo, mouse; settings: 20 mg/kg i.p., 15th day, compared to solvent control
Text: On the 15th day of the experiment, the lungs of the mice were excised to prepare an mRNA sample. In order to extract mRNA, the […] was ground with a homogenizer to obtain a homogeneous suspension. […] Then, cDNA was synthesized from the isolated RNA by reverse transcription, and the expression of inflammatory cytokines was confirmed through real-time polymerase chain reaction (PCR) using iQ SYBR-Green Supermix (Bio-rad) in the CFX96 (Bio-rad) detection system. Relative values of the enzyme expression levels were compared by the ΔΔct method using GAPDH as a control enzyme. Herein, one (1) fold was set using the normal mouse […] as a control.
The real-time polymerase chain reaction was implemented under the conditions of cycles at an annealing temperature of 58° C., and the following primer sequences were used.

[3] = test system: IL-1β, IL-6, IL-17A, TNF-α, IL-10 and Foxp3 expression in colon lesions; assay: mRNA expression of inflammatory and immunomodulatory factors in colon of DSS mice (real-time PCR); assay type: in vivo, mouse; settings: 20 mg/kg oral, 15th day, compared to solvent control
Text: On the 15th day of the experiment, the colon of the mouse was excised to prepare an mRNA sample. In order to extract mRNA, the colon tissue was ground with a homogenizer to acquire a homogeneous suspension. […] From the isolated RNA, cDNA was synthesized by reverse transcription followed by confirming the expression of inflammatory cytokines through real-time polymerase chain reaction (PCR) using iQ SYBR-Green Supermix (Bio-rad) in the CFX96 (Bio-rad) detection system. Relative values of the enzyme expression levels were compared by the ΔΔct method using GAPDH as a control enzyme. Herein, one (1) fold was set using the normal mouse colon as a control.
The real-time polymerase chain reaction was implemented under the conditions of cycles at an annealing temperature of 58′° C. and the following primer sequences were used.

[4] = test system: C57BL/6 mice with autoimmune encephalomyelitis (EAE); assay: Experimental autoimmune encephalomyelitis (EAE) model of multiple sclerosis, severity index; assay type: in vivo, mouse; settings: 20 mg/kg intraperitoneally daily 12th to 17th day
Protocol: On day 0, myelin oligodendrocyte glycoproteins 35-55 (MOG 35-55, Peptron) (200 μg), heat-killed Mycobacterium tuberculosis (Difco, Cat No. 231141) (500 μg), and adjuvant (Complete Freund's adjuvant, Sigma Aldrich, Cat No. F5506) were mixed together and then submerged for 7 minutes. After subcutaneous injection of 100 μl of the submerged peptide into both flanks of each of C57BL/6 mice (7 weeks old, female, 17±2 g), 100 μl of pertussis toxin (Sigma Aldrich. Cat No. P2980) (200 ng) was administered intravenously to the tail.
On the 2nd day of the experiment, the same amount of pertussis toxin was administered intravenously. The mice were checked for immersion leaking from the injected site, and visually observed from the 7th day of the experiment in order to confirm the onset of multiple sclerosis.
The multiple sclerosis index was visually observed and recorded at an interval of 2 days from the 7th day of the experiment in the severity index system classified into 0-5 stages, and autoimmune encephalomyelitis symptoms were indexed according to the following items (see Table 4).

[5] = test system: C57BL/6 mice with DSS-induced inflammatory bowel disease; assay: DSS-induced inflammatory bowel disease model, severity index and colon weight:length ratio; assay type: in vivo, mouse; settings: 20 mg/kg oral daily, compared to solvent control
Protocol: The 1.5% DSS solution was changed at an interval of 2 days. Sterile distilled water was provided for drinking from the 8th day of the experiment. Body weight and severity index were measured at an interval of 2 days from the 0th day of the experiment in order to confirm the onset of inflammatory bowel disease.
20 mg/kg of the compound per mouse was completely dissolved in DMSO corresponding to 10% (v/v) of the administered dose, and then diluted in a cremophor EL-phosphate buffered saline mixture in order to produce the final DMSO:Cremophor EL:phosphate buffered saline (1:1:8, v/v/v), followed by oral administration of 200 μl daily for a total of 10 times from the 2nd to 11th days of the experiment. An inflammatory bowel disease severity index was visually observed and recorded at an interval of 2 days according to a severity index system classified into 0 to 10 levels.
Inflammatory bowel disease symptoms were evaluated by summing the scores of three items according to the following items (Table 3).

[6] = test system: C57BL/6 mice with graft-versus-host disease; assay: Acute graft-versus-host disease model (allogeneic bone marrow transplantation), severity index; assay type: in vivo, mouse; settings: 20 mg/kg intraperitoneally daily 4 to 9 days after transplantation; 14th day after transplantation; total of 10 points; solvent control 6.20±1.20
Protocol: The spleen of Balb/c IFN-γ knockout mouse (8 to 12 weeks old, female, 18±3 g) was excised, pulverized by adding RPMI medium, and then passed through a 40 μm cell strainer (BD Falcon), thereby obtaining a single cell suspension. The single cell suspension was centrifuged (1200 rpm, 5 minutes), and after discarding the supernatant, 1 ml of ACK (ammonium chloride/potassium bicarbonate) lysis buffer (0.15 M NH4Cl, 1 mM KHCO3, 0.1 mM Na2EDTA) was added, followed by stirring for 1 minute and then washing the same with RPMI medium.
Then, CD90.2^+ T cells were obtained from the cell suspension using Auto MACS pro (Miltenyi Biotec) (positive selection). To obtain bone marrow cells to be transplanted together with the obtained CD90.2^+ T cells, both femurs and tibias of wild-type Balb/c mice (8-12 weeks old, female, 18±3 g) were aseptically acquired. […]
Normal C57BL/6 mice (9 to 11 weeks old, female, 19±3 g) were irradiated with 850 cGy of radiation divided at an interval of 3 hours by using a radiation irradiator. […] The graft-versus-host disease severity index was evaluated at an interval of 2 days by visual observation in a severity index system that was classified into a total of 10 points with 0 to 2 points for each item including reduction of body weight, hair condition, posture, activity and skin change.

[7] = test system: AOM/DSS-induced colon cancer in C57BL/6 mice; assay: AOM/DSS-induced colon cancer mouse model, number of tumors per colon; assay type: in vivo; settings: 20 mg/kg oral daily 7th to 21st day, 93rd day, solvent control 11.33±4.33
Text: Sterile distilled water was provided for drinking from the 8th day of the experiment.

[8] = scale 0-5, solvent control 3.33±0.17

O=C(Cc1c[nH]c2ccc(Cl)cc12)Nc1ccc(Cl)c(F)n1 [Compound 26, 2-(5-chloro-1H-indol-3-yl)-N-(5-chloro-6-fluoropyridin-2-yl)acetamide]
Serum FITC-dextran [1]: significantly reduced
expression level of IL-6 in lung tissue [2]: significantly reduced
expression level of IL-10 in lung tissue [2]: significantly increased
expression level of IL-17A in lung tissue [2]: significantly reduced
expression level of Foxp3 in the colon lesion [3]: significantly increased
expression level of IL-1β in colon lesions [3]: significantly reduced
expression level of IL-6 in colon lesions [3]: significantly reduced
expression level of IL-10 in the colon lesion [3]: significantly increased
expression level of IL-17A in colon lesions [3]: significantly reduced
expression level of TNF-α in colon lesions [3]: significantly reduced
treatment effects on EAE severity index compared to solvent control from the 16th day, maintained after administration was stopped [4]: statistically significant treatment effects
severity index (EAE), 18th day, acute reaction period [4, 8]: 1.33±0.56
severity index (EAE), 36th day, chronic reaction period [4, 8]: 1.33±0.22
inflammatory bowel disease severity index ([5]; 2nd to 11th day, 10th day of the experiment): statistically significant therapeutic effects
colon weight:length ratio (intestinal inflammation) ([5]; 15th day of the experiment): significantly suppressed
graft-versus-host disease severity index [6]: 2.80±0.80
number of tumors in the colon [7]: 3.17±1.17
